Some results are limits rather than exact numbers.

The term IC50 denotes the concentration that inhibits the measured activity by half.

The target in this test is T1, human Nav1.8 (hNav1.8) ion channel (Homo sapiens, UniProt Q9Y5Y9).
T1 construct: expressed in transfected cells
The experiment in a line: Nav1.8 inhibition, estimated IC50 (Nav1.8 fluorescence, PatchXpress and/or IonFlux HT automated patch clamp assay). The format is cell-based. The note with it: HEK293 cells stably expressing hNav1.8; determined using one or more of the described methods; read-out: Activity range (estimated IC50). The method, then:
The ability of pyridine carboxamide derivatives exemplified above to inhibit the Nav1.8 channel was determined using one or more of the methods described below.
HEK Nav1.8 β1/β2 Stably Expressing Cell Line
A HEK293 cell line stably expressing the human Nav1.8 (hNav1.8) ion channel with β1/β2 subunits was constructed. The cell line is suitable for IC50 determination in fluorescence and electrophysiological based assays. It is also suitable to conduct mechanism of action pharmacology studies in electrophysiological assays. HEK293 Nav1.8 cells are grown as adherent monolayers in DMEM/high glucose media, 10% fetal bovine serum, Na pyruvate (2 mM), Hepes (10 mM) with selection agents G418 (400 mg/L) and puromycin (0.5 mg/L) at 37 degrees C., 10% CO2.
Nav1.8 Fluorescence Inhibition Assay
Compounds were made up to or supplied as a 10-mM stock solution using DMSO as the vehicle. Concentration-response curves were generated using a Matrix multichannel pipettor. Compound source plates were made by diluting 10 mM compound stocks to create 500 μM (100×) solutions in DMSO in 96-well v-bottom plates. Compounds were then serially diluted in 100% DMSO to generate a 5 point, 4-fold dilution scheme dose response curve. 2 μL of the 100× dose response curves were then added to preincubation and stimulation assay plates. 100 μL of pre-incubation buffer and 200 μl of stimulation buffer was then added to the plates resulting in a final assay test concentration range of 5 μM to 0.02 μM with a final DMSO concentration of 1%.
On the day of assay, plates were washed to remove cell culture media using 2K EBSS buffer (135 mM NaCl, 2 mM KCl, 5 mM Glucose, 2 mM CaCl2, 1 mM MgCl2, 10 mM HEPES, pH 7.4). The Na-sensitive fluorescent dye, Asante Natrium Green-2 (ANG-2) was incubated for 60 min to allow equilibration and then washed with 2K EBSS. Plates were then transferred to a fluorescence plate reader (FLIPR™, Molecular Devices) for fluorescence measurement using an excitation wavelength of 490 nm and an emission wavelength of 565 nm. Compounds were pre-incubated for 5 min at final test concentration in the presence of ouabain (30 μM) to inhibit Na+ efflux through Na+/K+ exchanger. Following the pre-incubation phase, hNav1.8 channels were stimulated with 10 μM of the pyrethroid deltamethrin to prevent channel inactivation. The assay was run for 15 minutes with vehicle and 30 μM tetracaine serving as negative and positive controls, respectively. The peak change in fluorescence relative to negative and positive control wells was calculated and fit with a logistic equation to determine IC50.
PatchXpress Nav1.8 Inhibition Assay
HEK-Nav1.8 β1/β2 cells were recorded in whole cell patch-clamp using the PatchXpress automated patch clamp platforms (Molecular Devices). Cell suspensions were obtained by trypsinization of adherent monolayers, followed by gentle rocking for minimally 30 min. Compounds were prepared from 10 mM DMSO stocks.
Nav1.8 channel variants were evaluated using Protocol 1 in which cells were initially voltage clamped at a holding potential of −100 mV to maintain Nav1.8 in a closed resting state. After current amplitude becomes stable, the mid-point voltage of steady state inactivation was determined for each cell using a series of 5 sec conditioning steps to increasingly depolarized voltages (−100 to 0 mV) The holding potential was then reset to a voltage that produces ˜50% inactivation (Vhalf-set automatically via PatchXpress scripts) so that closed and inactivated channel inhibition could be assessed. Protocol 1 was run at a frequency of 0.1 Hz until current amplitude is steady (automatically determined by PatchXpress scripts). The effect of test reagent on Nav current amplitude was monitored using custom PatchXpress stability scripts which determines the timing of compound addition and washout.
Data were processed and analyzed using DataXpress 2.0 (Molecular Devices). […]

T1 sequence (Q9Y5Y9 whole entry): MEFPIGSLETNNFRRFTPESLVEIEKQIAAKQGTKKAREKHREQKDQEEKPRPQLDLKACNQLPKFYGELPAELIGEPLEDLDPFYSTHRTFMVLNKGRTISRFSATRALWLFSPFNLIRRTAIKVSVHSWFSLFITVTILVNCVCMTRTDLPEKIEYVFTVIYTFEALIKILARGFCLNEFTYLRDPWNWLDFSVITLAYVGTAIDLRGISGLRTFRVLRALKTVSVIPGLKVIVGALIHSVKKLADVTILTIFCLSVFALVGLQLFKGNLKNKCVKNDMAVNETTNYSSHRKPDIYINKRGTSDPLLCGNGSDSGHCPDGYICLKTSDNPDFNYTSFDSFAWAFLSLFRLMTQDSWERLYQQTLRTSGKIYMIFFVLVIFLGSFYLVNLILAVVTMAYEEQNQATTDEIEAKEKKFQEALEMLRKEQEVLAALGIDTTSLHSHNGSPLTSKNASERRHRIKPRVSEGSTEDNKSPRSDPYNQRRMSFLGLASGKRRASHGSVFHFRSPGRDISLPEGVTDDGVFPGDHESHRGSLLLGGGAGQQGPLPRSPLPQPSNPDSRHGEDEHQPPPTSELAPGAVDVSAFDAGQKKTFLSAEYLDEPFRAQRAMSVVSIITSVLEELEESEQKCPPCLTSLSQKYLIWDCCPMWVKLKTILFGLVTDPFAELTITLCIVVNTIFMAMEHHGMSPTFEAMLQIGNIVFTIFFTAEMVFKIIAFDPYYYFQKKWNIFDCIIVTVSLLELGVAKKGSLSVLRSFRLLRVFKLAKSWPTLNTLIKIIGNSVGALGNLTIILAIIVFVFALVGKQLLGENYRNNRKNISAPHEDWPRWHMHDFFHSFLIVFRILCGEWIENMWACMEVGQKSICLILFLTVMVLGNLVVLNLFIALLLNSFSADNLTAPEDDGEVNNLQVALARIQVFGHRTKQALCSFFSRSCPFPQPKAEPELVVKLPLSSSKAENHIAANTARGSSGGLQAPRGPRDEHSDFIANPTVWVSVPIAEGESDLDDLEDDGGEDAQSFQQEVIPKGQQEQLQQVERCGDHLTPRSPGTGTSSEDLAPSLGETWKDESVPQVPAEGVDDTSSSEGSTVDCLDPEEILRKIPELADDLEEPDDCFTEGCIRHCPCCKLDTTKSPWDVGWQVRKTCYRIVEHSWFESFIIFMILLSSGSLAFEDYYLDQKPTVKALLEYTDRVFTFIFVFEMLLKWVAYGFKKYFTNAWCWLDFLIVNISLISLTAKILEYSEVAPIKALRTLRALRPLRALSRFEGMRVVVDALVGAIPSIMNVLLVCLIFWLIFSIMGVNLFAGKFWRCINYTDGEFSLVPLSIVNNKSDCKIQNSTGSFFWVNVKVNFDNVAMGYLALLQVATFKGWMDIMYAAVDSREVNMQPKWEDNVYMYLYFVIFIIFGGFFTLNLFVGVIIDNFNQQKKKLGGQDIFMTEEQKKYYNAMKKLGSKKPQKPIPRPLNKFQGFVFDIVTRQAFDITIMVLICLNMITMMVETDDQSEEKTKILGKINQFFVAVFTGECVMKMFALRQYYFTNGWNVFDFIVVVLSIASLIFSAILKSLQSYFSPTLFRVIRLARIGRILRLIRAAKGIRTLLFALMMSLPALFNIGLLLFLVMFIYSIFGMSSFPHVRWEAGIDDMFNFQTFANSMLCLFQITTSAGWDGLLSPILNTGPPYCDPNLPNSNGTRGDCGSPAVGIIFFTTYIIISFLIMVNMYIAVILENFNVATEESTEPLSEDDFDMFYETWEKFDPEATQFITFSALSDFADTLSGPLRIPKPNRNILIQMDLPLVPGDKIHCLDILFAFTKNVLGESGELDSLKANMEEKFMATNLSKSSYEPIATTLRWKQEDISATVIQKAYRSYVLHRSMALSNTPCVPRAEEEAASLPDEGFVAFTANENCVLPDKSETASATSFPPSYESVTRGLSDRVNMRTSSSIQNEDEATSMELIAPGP
T1 sequence (Q07699 19-218 partner): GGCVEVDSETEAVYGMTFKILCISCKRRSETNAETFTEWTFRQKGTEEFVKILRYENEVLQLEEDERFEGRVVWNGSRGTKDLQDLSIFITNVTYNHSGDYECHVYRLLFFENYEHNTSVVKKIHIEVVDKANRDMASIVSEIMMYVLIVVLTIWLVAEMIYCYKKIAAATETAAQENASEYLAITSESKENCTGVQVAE

As to `O=C(NCc1cccnc1N1CCOCC1)c1cnnc(-c2ccc(OCC3CCC3)c(Cl)c2)c1` [Example 44, 6-[3-chloro-4-(cyclobutylmethoxy)phenyl]-N-[(2-morpholino-3-pyridyl)methyl]pyridazine-4-carboxamide], the IC50 is less than 0.5 µM. As for `O=C(NCc1cccnc1N1CCOCC1)c1cnnc(-c2ccc(Cl)nc2)c1` [Example 2, 6-(6-chloro-3-pyridyl)-N-[(2-morpholino-3-pyridyl)methyl]pyridazine-4-carboxamide], the IC50 was greater than 1 µM. The same measure for `O=C(NCc1cccnc1N1CCOCC1)c1cnnc(-c2ccc(OC3CC3)cc2)c1` [Example 15, 6-[4-(cyclopropoxy)phenyl]-N-[(2-morpholino-3-pyridyl)methyl]pyridazine-4-carboxamide]: less than 0.5 µM; for `Cc1cnc(N2CCOCC2)c(CNC(=O)c2cnnc(-c3ccc(OCC4CC4)c(Cl)c3)c2)c1` [Example 26, 6-[3-chloro-4-(cyclopropylmethoxy)phenyl]-N-[(5-methyl-2-morpholino-3-pyridyl)methyl]pyridazine-4-carboxamide]: greater than 1 µM. To `O=C(NCc1ccccc1N1CCOCC1)c1cnnc(-c2ccc(OCC3CC3)c(Cl)c2)c1` [Example 27, 6-[3-chloro-4-(cyclopropylmethoxy)phenyl]-N-[(2-morpholinophenyl)methyl]pyridazine-4-carboxamide] belongs less than 0.5 µM; to “6-[4-(difluoromethoxy)phenyl]-N-[(2-morpholinophenyl)methyl]pyridazine-4-carboxamide [Example 56]”, less than 0.5 µM. The same measure for `O=C(NCc1cccnc1N1CCOCC1)c1cnnc(-c2ccc(Cl)cc2)c1` [Example 17, 6-(4-chlorophenyl)-N-[(2-morpholino-3-pyridyl)methyl]pyridazine-4-carboxamide]: greater than 1 µM; for `O=C(NCc1cccnc1N1CCOCC1)c1cnnc(-c2cccc(Cl)c2)c1` [Example 3, 6-(3-chlorophenyl)-N-[(2-morpholino-3-pyridyl)methyl]pyridazine-4-carboxamide]: 0.5 to 1 µM. Take `O=C(NCc1cccnc1N1CCOC(C(F)(F)F)C1)c1cnnc(-c2ccc(OCC3CC3)c(Cl)c2)c1` (centres unmarked) [Example 39, 6-[3-chloro-4-(cyclopropylmethoxy)phenyl]-N-[[2-[2-(trifluoromethyl)morpholin-4-yl]-3-pyridyl]methyl]pyridazine-4-carboxamide]: the IC50 was 0.5 to 1 µM. To `CCCOc1ccc(-c2cc(C(=O)NCc3cccnc3N3CCOCC3)cnn2)cc1Cl` [Example 10, 6-(3-chloro-4-propoxy-phenyl)-N-[(2-morpholino-3-pyridyl)methyl]pyridazine-4-carboxamide] belongs less than 0.5 µM. To `Cc1ccnc(N2CCOCC2)c1CNC(=O)c1cnnc(-c2ccc(Cl)cc2)c1` [Example 60, 6-(4-chlorophenyl)-N-[(4-methyl-2-morpholino-3-pyridyl)methyl]pyridazine-4-carboxamide] belongs less than 0.5 µM; to `CC(C)Oc1ncccc1CNC(=O)c1cnnc(-c2ccc(OCC3CC3)c(Cl)c2)c1` [Example 42, 6-[3-chloro-4-(cyclopropylmethoxy)phenyl]-N-[(2-isopropoxy-3-pyridyl)methyl]pyridazine-4-carboxamide], less than 0.5 µM. With `O=C(NCc1cccnc1N1CCOCC1)c1cnnc(-c2ccc(OCC(F)(F)F)cc2)c1` [Example 7, N-[(2-morpholino-3-pyridyl)methyl]-6-[4-(2,2,2-trifluoroethoxy)phenyl]pyridazine-4-carboxamide], the IC50 is less than 0.5 µM. In the case of `[2H]C1([2H])OC([2H])([2H])C([2H])([2H])N(c2ncccc2CNC(=O)c2cnnc(-c3ccc(OCC4CC4)c(Cl)c3)c2)C1([2H])[2H]` [Example 38, 6-[3-chloro-4-(cyclopropylmethoxy)phenyl]-N-[[2-(2,2,3,3,5,5,6,6-octadeuteriomorpholin-4-yl)-3-pyridyl]methyl]pyridazine-4-carboxamide], the IC50 is less than 0.5 µM.

For `O=C(NCc1cccnc1N1CCOCC1)c1cnnc(-c2ccc(OCC3CC3)c(F)c2)c1` [Example 46, 6-[4-(cyclopropylmethoxy)-3-fluoro-phenyl]-N-[(2-morpholino-3-pyridyl)methyl]pyridazine-4-carboxamide], the IC50 was less than 0.5 µM.

Regarding `CC(C)Oc1ccc(-c2cc(C(=O)NCc3cccnc3N3CCOCC3)cnn2)cc1Cl` [Example 11, 6-(3-chloro-4-isopropoxy-phenyl)-N-[(2-morpholino-3-pyridyl)methyl]pyridazine-4-carboxamide], the IC50 was less than 0.5 µM. Regarding `O=C(NCc1cccnc1N1CCCC1)c1cnnc(-c2ccc(OCC3CC3)c(Cl)c2)c1` [Example 29, 6-[3-chloro-4-(cyclopropylmethoxy)phenyl]-N-[(2-pyrrolidin-1-yl-3-pyridyl)methyl]pyridazine-4-carboxamide], the IC50 was less than 0.5 µM. To `O=C(NCc1cccnc1N1CCOCC1)c1cnnc(-c2ccc(OCC3CC3)nc2)c1` [Example 16, 6-[6-(cyclopropylmethoxy)-3-pyridyl]-N-[(2-morpholino-3-pyridyl)methyl]pyridazine-4-carboxamide] belongs less than 0.5 µM; to `O=C(NCc1cccnc1N1CCOCC1)c1cnnc(-c2ccc(OCC3CC3)c(C(F)(F)F)c2)c1` [Example 47, 6-[4-(cyclopropylmethoxy)-3-(trifluoromethyl)phenyl]-N-[(2-morpholino-3-pyridyl)methyl]pyridazine-4-carboxamide], less than 0.5 µM; to `O=C(NCc1cccnc1N1CCCCC1)c1cnnc(-c2ccc(OCC3CC3)c(Cl)c2)c1` [Example 30, 6-[3-chloro-4-(cyclopropylmethoxy)phenyl]-N-[[2-(1-piperidyl)-3-pyridyl]methyl]pyridazine-4-carboxamide], less than 0.5 µM.

Regarding `O=C(NCc1cccnc1N1C[C@@H]2C[C@H]1CO2)c1cnnc(-c2ccc(OCC3CC3)c(Cl)c2)c1` [Example 34, 6-[3-chloro-4-(cyclopropylmethoxy)phenyl]-N-[[2-[(1S,4S)-2-oxa-5-azabicyclo[2.2.1]heptan-5-yl]-3-pyridyl]methyl]pyridazine-4-carboxamide], the 50% inhibitory concentration (IC50) was less than 0.5 µM.

As for `CCCOc1ccc(-c2cc(C(=O)NCc3cccnc3N3CCOCC3)cnn2)cc1F` [Example 13, 6-(3-fluoro-4-propoxy-phenyl)-N-[(2-morpholino-3-pyridyl)methyl]pyridazine-4-carboxamide], the IC50 is less than 0.5 µM. To `CCC1CN(c2ncccc2CNC(=O)c2cnnc(-c3ccc(OCC4CC4)c(Cl)c3)c2)CCO1` (centres unmarked) [Example 41, 6-[3-chloro-4-(cyclopropylmethoxy)phenyl]-N-[[2-(2-ethylmorpholin-4-yl)-3-pyridyl]methyl]pyridazine-4-carboxamide] belongs less than 0.5 µM; to `CCOc1ccc(-c2cc(C(=O)NCc3cccnc3N3CCOCC3)cnn2)cc1Cl` [Example 9, 6-(3-chloro-4-ethoxy-phenyl)-N-[(2-morpholino-3-pyridyl)methyl]pyridazine-4-carboxamide], less than 0.5 µM.

With `CS(=O)(=O)c1ccccc1CNC(=O)c1cnnc(-c2ccc(OCC3CC3)c(Cl)c2)c1` [Example 35, 6-[3-chloro-4-(cyclopropylmethoxy)phenyl]-N-[(2-methylsulfonylphenyl)methyl]pyridazine-4-carboxamide], the IC50 is 0.5 to 1 µM.

Consider `CC(C)COc1ccc(-c2cc(C(=O)NCc3cccnc3N3CCOCC3)cnn2)cc1` [Example 5, 6-(4-isobutoxyphenyl)-N-[(2-morpholino-3-pyridyl)methyl]pyridazine-4-carboxamide], for which the IC50 is less than 0.5 µM.

These data come from patent US11993581B2, “Pyridazine compounds for inhibiting Nav1.8” (Lieber Institute, Inc., priority 2018, dated 2024).
